In brackets after ≈: the same amount, converted by molar mass. Like-named read-outs stand apart in the source and are kept apart here.
Experiments:
Assay in all cases: Broth dilution MIC
Assay type in all cases: cell-based
S. marcescens GC 4077 = conditions: Serratia marcescens, read-out: Antimicrobial Activity (MIC)
Method in brief: (§1)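 Compounds were serially diluted in Mueller-Hinton broth and inoculated with bacterial suspension. After 18 hours at 35° C., the MIC was taken as the lowest concentration inhibiting visible growth of the strain.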

E. coli GC 2203 = conditions: Escherichia coli, read-out: Antimicrobial Activity (MIC)
Method in brief: as §1

E. cloacae GC 3783 = conditions: Enterobacter cloacae, read-out: Antimicrobial Activity (MIC)
Method in brief: as §1

P. aeruginosa GC 4532 = conditions: Pseudomonas aeruginosa, read-out: Antimicrobial Activity (MIC)
Method in brief: as §1

E. faecalis GC 2242 = conditions: Enterococcus faecalis, read-out: Antimicrobial Activity (MIC)
Method in brief: as §1

E. coli GC 4559 = conditions: Escherichia coli, read-out: Antimicrobial Activity (MIC)
Method in brief: as §1

P. aeruginosa GC 2214 = conditions: Pseudomonas aeruginosa, read-out: Antimicrobial Activity (MIC)
Method in brief: as §1

E. coli GC 4560 = conditions: Escherichia coli, read-out: Antimicrobial Activity (MIC)
Method in brief: as §1

K. pneumoniae GC 4534 = conditions: Klebsiella pneumoniae, read-out: Antimicrobial Activity (MIC)
Method in brief: as §1

M. morganii GC 4531 = conditions: Morganella morganii, read-out: Antimicrobial Activity (MIC)
Method in brief: as §1

E. faecalis GC 4555 = conditions: Enterococcus faecalis, read-out: Antimicrobial Activity (MIC)
Method in brief: as §1

CNS GC 4537 = conditions: read-out: Antimicrobial Activity (MIC)
Method in brief: as §1

CNS GC 4538 = conditions: read-out: Antimicrobial Activity (MIC)
Method in brief: as §1

S. aureus GC 4536 = conditions: Staphylococcus aureus, read-out: Antimicrobial Activity (MIC)
Method in brief: as §1

S. aureus GC 1131 = conditions: Staphylococcus aureus, read-out: Antimicrobial Activity (MIC)
Method in brief: as §1

E. faecalis GC 842 = conditions: Enterococcus faecalis, read-out: Antimicrobial Activity (MIC)
Method in brief: as §1

S. aureus GC 2216 = conditions: Staphylococcus aureus, read-out: Antimicrobial Activity (MIC)
Method in brief: as §1

CNS GC 4547 = conditions: read-out: Antimicrobial Activity (MIC)
Method in brief: as §1

E. coli GC 3226 = conditions: Escherichia coli, read-out: Antimicrobial Activity (MIC)
Method in brief: as §1

P. rettgeri GC 4530 = conditions: Providencia rettgeri, read-out: Antimicrobial Activity (MIC)
Method in brief: as §1

[1] = GC4077, S. marcescens GC 4077, Mueller-Hinton broth, 18 hours at 35° C.
[2] = GC2203, E. coli GC 2203, Mueller-Hinton broth, 18 hours at 35° C.
[3] = GC3783, E. cloacae GC 3783, Mueller-Hinton broth, 18 hours at 35° C.
[4] = GC4532, P. aeruginosa GC 4532, Mueller-Hinton broth, 18 hours at 35° C.
[5] = GC2242, E. faecalis GC 2242, Mueller-Hinton broth, 18 hours at 35° C.
[6] = GC4559, E. coli GC 4559, Mueller-Hinton broth, 18 hours at 35° C.
[7] = GC2214, P. aeruginosa GC 2214, Mueller-Hinton broth, 18 hours at 35° C.
[8] = GC4560, E. coli GC 4560, Mueller-Hinton broth, 18 hours at 35° C.
[9] = GC4534, K. pneumoniae GC 4534, Mueller-Hinton broth, 18 hours at 35° C.
[10] = GC4531, M. morganii GC 4531, Mueller-Hinton broth, 18 hours at 35° C.
[11] = GC4555, E. faecalis GC 4555, Mueller-Hinton broth, 18 hours at 35° C.
[12] = CNS GC 4537, Mueller-Hinton broth, 18 hours at 35° C.
[13] = CNS GC 4538, Mueller-Hinton broth, 18 hours at 35° C.
[14] = GC4536, S. aureus GC 4536, Mueller-Hinton broth, 18 hours at 35° C.
[15] = GC1131, S. aureus GC 1131, Mueller-Hinton broth, 18 hours at 35° C.
[16] = GC842, E. faecalis GC 842, Mueller-Hinton broth, 18 hours at 35° C.
[17] = GC2216, S. aureus GC 2216, Mueller-Hinton broth, 18 hours at 35° C.
[18] = CNS GC 4547, Mueller-Hinton broth, 18 hours at 35° C.
[19] = GC3226, E. coli GC 3226, Mueller-Hinton broth, 18 hours at 35° C.
[20] = GC4530, P. rettgeri GC 4530, Mueller-Hinton broth, 18 hours at 35° C.

MIC (S. marcescens GC 4077; [1]) [µg/mL] | MIC (E. coli GC 2203; [2]) [µg/mL] | MIC (E. cloacae GC 3783; [3]) [µg/mL] | MIC (P. aeruginosa GC 4532; [4]) [µg/mL] | MIC (E. faecalis GC 2242; [5]) [µg/mL] | MIC (E. coli GC 4559; [6]) [µg/mL] | MIC (P. aeruginosa GC 2214; [7]) [µg/mL] | MIC (K. pneumoniae GC 4534; [9]) [µg/mL] | MIC (M. morganii GC 4531; [10]) [µg/mL] | MIC (E. faecalis GC 4555; [11]) [µg/mL] | MIC (CNS GC 4537; [12]) [µg/mL] | MIC (CNS GC 4538; [13]) [µg/mL] | MIC (S. aureus GC 4536; [14]) [µg/mL] | MIC (S. aureus GC 1131; [15]) [µg/mL] | MIC (E. faecalis GC 842; [16]) [µg/mL] | MIC (S. aureus GC 2216; [17]) [µg/mL] | MIC (CNS GC 4547; [18]) [µg/mL] | MIC (E. coli GC 3226; [19]) [µg/mL] | MIC (P. rettgeri GC 4530; [20]) [µg/mL] | SMILES | MIC (E. coli GC 4560; GC4560, 18 h) [µg/mL] | further results
– | – | – | – | – | – | – | – | – | – | – | – | – | – | – | – | – | – | – | COc1ccc(NC(=O)NC[C@H]2OC(O[C@H](C3C(=O)N(c4ccc(OC)cc4)C(=O)N3CCCNC(=O)C(NC(=O)C(NC(=O)NC(C(=O)O)C(C)C)C3CCNC(=N)N3)C(O)C(C)C)[C@H]3O[C@@H](n4ccc(=O)[nH]c4=O)C(O)C3O)C(OC)C2O)cc1 (stereo partly drawn) [Example 13, 14-[5-((R)-{(2S,5R)-5-[2,4-Dioxo-3,4-dihydro-1 (2H)-pyrimidinyl]-3,4-dihydroxytetrahydro-2-furanyl}{[(5R)-4-hydroxy-3-methoxy-5-({[(4-methoxyanilino)carbonyl]amino}methyl)tetrahydro-2-furanyl]oxy}methyl)-3-(4-methoxyphenyl)-2,4-dioxo-1-imidazolidinyl]-9-(1-hydroxy-2-methylpropyl)-6-(2-iminohexahydro-4-pyrimidinyl)-2-isopropyl-4,7,10-trioxo-3,5,8,11-tetraazatetradecan-1-oic Acid] | > 32 | MIC (S. marcescens GC 4077; GC4077, 18 h): > 32 µg/mL; MIC (E. coli GC 2203; GC2203, 18 h): > 32 µg/mL; MIC (E. cloacae GC 3783; GC3783, 18 h): > 32 µg/mL; MIC (P. aeruginosa GC 4532; GC4532, 18 h): > 32 µg/mL; MIC (E. faecalis GC 2242; GC2242, 18 h): > 32 µg/mL; MIC (E. coli GC 4559; GC4559, 18 h): > 32 µg/mL; MIC (P. aeruginosa GC 2214; GC2214, 18 h): > 32 µg/mL; MIC (K. pneumoniae GC 4534; GC4534, 18 h): > 32 µg/mL; MIC (M. morganii GC 4531; GC4531, 18 h): > 32 µg/mL; MIC (E. faecalis GC 4555; GC4555, 18 h): > 32 µg/mL; MIC (CNS GC 4537; 18 h): > 32 µg/mL; MIC (CNS GC 4538; 18 h): > 32 µg/mL; MIC (S. aureus GC 4536; GC4536, 18 h): > 32 µg/mL; MIC (S. aureus GC 1131; GC1131, 18 h): > 32 µg/mL; MIC (E. faecalis GC 842; GC842, 18 h): > 32 µg/mL; MIC (S. aureus GC 2216; GC2216, 18 h): > 32 µg/mL; MIC (CNS GC 4547; 18 h): > 32 µg/mL; MIC (E. coli GC 3226; GC3226, 18 h): > 32 µg/mL; MIC (P. rettgeri GC 4530; GC4530, 18 h): > 32 µg/mL
> 32 | > 32 | > 32 | > 32 | 32 (≈ 27.1 µM) | > 32 | > 32 | > 32 | > 32 | > 32 | 32 (≈ 27.1 µM) | 32 (≈ 27.1 µM) | 32 (≈ 27.1 µM) | 32 (≈ 27.1 µM) | > 32 | 32 (≈ 27.1 µM) | 16 (≈ 13.5 µM) | > 32 | > 32 | CCCCCCNC(=O)NC[C@H]1OC(O[C@H](C2C(=O)N(CCCCCC)C(=O)N2CCCNC(=O)C(NC(=O)C(NC(=O)NC(C(=O)O)C(C)C)C2CCNC(=N)N2)C(O)C(C)C)[C@H]2O[C@@H](n3ccc(=O)[nH]c3=O)[C@H](O)[C@@H]2O)[C@H](OC)[C@H]1O (stereo partly drawn) [Example 14, 14-[5-((R)-{(2S,3S,4R,5R)-5-[2,4-Dioxo-3,4-dihydro-1 (2H)-pyrimidinyl]-3,4-dihydroxytetrahydro-2-furanyl}{[(3R,4S,5R)-5-({[(hexylamino)carbonyl]amino}methyl)-4-hydroxy-3-methoxytetrahydro-2-furanyl]oxy}methyl)-3-hexyl-2,4-dioxo-1-imidazolidinyl]-9-(1-hydroxy-2-methylpropyl)-6-(2-iminohexahydro-4-pyrimidinyl)-2-isopropyl-4,7,10-trioxo-3,5,8,11-tetraazatetradecan-1-oic Acid] | – | MIC (E. coli GC 4560; [8]): 32 µg/mL (≈ 27.1 µM)
> 32 | > 32 | > 32 | > 32 | > 32 | > 32 | > 32 | > 32 | > 32 | > 32 | > 32 | > 32 | > 32 | > 32 | > 32 | > 32 | > 32 | > 32 | > 32 | CCCCCCCCCCCCNC(=O)NC[C@H]1OC(O[C@H](C2C(=O)N(CCCCCCCCCCCC)C(=O)N2CCCNC(=O)C(NC(=O)C(NC(=O)NC(C(=O)O)C(C)C)C2CCNC(=N)N2)C(O)C(C)C)[C@H]2O[C@@H](n3ccc(=O)[nH]c3=O)[C@H](O)[C@@H]2O)[C@H](OC)[C@H]1O (stereo partly drawn) [Example 15, 14-[5-((R)-{(2S,3S,4R,5R)-5-[2,4-Dioxo-3,4-dihydro-1 (2H)-pyrimidinyl]-3,4-dihydroxytetrahydro-2-furanyl}{[(3R,4S,5R)-5-({[(dodecylamino)carbonyl]amino}methyl)-4-hydroxy-3-methoxytetrahydro-2-furanyl]oxy}methyl)-3-dodecyl-2,4-dioxo-1-imidazolidinyl]-9-(1-hydroxy-2-methylpropyl)-6-(2-iminohexahydro-4-pyrimidinyl)-2-isopropyl-4,7,10-trioxo-3,5,8,11-tetraazatetradecan-1-oic Acid] | – | MIC (E. coli GC 4560; [8]): > 32 µg/mL

SMILES | MIC (S. marcescens GC 4077; [1]) [µg/mL] | MIC (E. coli GC 2203; [2]) [µg/mL] | MIC (E. cloacae GC 3783; [3]) [µg/mL] | MIC (P. aeruginosa GC 4532; [4]) [µg/mL] | MIC (E. faecalis GC 2242; [5]) [µg/mL] | MIC (E. coli GC 4559; [6]) [µg/mL] | MIC (P. aeruginosa GC 2214; [7]) [µg/mL] | MIC (K. pneumoniae GC 4534; [9]) [µg/mL] | MIC (M. morganii GC 4531; [10]) [µg/mL] | MIC (E. faecalis GC 4555; [11]) [µg/mL] | MIC (CNS GC 4537; [12]) [µg/mL] | MIC (CNS GC 4538; [13]) [µg/mL] | MIC (S. aureus GC 4536; [14]) [µg/mL] | MIC (S. aureus GC 1131; [15]) [µg/mL] | MIC (E. faecalis GC 842; [16]) [µg/mL] | MIC (S. aureus GC 2216; [17]) [µg/mL] | MIC (CNS GC 4547; [18]) [µg/mL] | MIC (E. coli GC 3226; [19]) [µg/mL] | MIC (P. rettgeri GC 4530; [20]) [µg/mL] | MIC (E. coli GC 4560; GC4560, 18 h) [µg/mL] | further results
CCCCCCCCCCCCCCCCNC(=O)NC[C@H]1OC(O[C@H](C(NCCCNC(=O)C(NC(=O)C(NC(=O)NC(C(=O)O)C(C)C)C2CCNC(=N)N2)C(O)C(C)C)C(=O)O)[C@H]2O[C@@H](n3ccc(=O)[nH]c3=O)[C@H](O)[C@@H]2O)[C@H](OC)[C@H]1O (stereo partly drawn) [Example 16, 16-((R)-{(2S,3S,4R,5R)-5-[2,4-Dioxo-3,4-dihydro-1 (2H)-pyrimidinyl]-3,4-dihydroxytetrahydro-2-furanyl}{[(3R,4S,5R)-5-({[(hexadecylamino)carbonyl]amino}methyl)-4-hydroxy-3-methoxytetrahydro-2-furanyl]oxy}methyl)-9-(1-hydroxy-2-methylpropyl)-6-(2-iminohexahydro-4-pyrimidinyl)-2-isopropyl-4,7,10-trioxo-3,5,8,11,15-pentaazaheptadecane-1,17-dioic Acid] | > 32 | > 32 | > 32 | > 32 | > 32 | > 32 | > 32 | > 32 | > 32 | > 32 | > 32 | > 32 | > 32 | > 32 | > 32 | > 32 | > 32 | > 32 | > 32 | > 32 | –
